Calls of active or inactive are those of the source. No cut-off for these calls is given here.
Legend:
[1] = target: Voltage-gated inwardly rectifying potassium channel KCNH2 (Homo sapiens, UniProt Q12809); experiment: Inhibition of hERG expressed in CHO cells by automated patch clamp electrophysiology analysis; assay type: toxicity, cell-based
[2] = target: High affinity cAMP-specific and IBMX-insensitive 3',5'-cyclic phosphodiesterase 8A (Homo sapiens, UniProt O60658); experiment: Inhibition of PDE8A (480 to 820 residues) (unknown origin) using 3H-cAMP as substrate
Cytochrome P450 3A4 = Cytochrome P450 3A4 (Homo sapiens, UniProt P08684); experiment: Inhibition of CYP3A4-M in human liver microsomes in presence of NADPH; assay type: ADME, Microsome
Cytochrome P450 2D6 = Cytochrome P450 2D6 (Homo sapiens, UniProt P10635); experiment: Inhibition of CYP2D6 in human liver microsomes in presence of NADPH; assay type: ADME, Microsome
[3] = target: 3',5'-cyclic-AMP phosphodiesterase 4D (Homo sapiens, UniProt Q08499); experiment: Inhibition of PDE4D (86 to 413 residues) (unknown origin) using 3H-cAMP as substrate
Rattus norvegicus [4] = experiment: Antifibrotic activity against bile duct ligation induced Sprague-Dawley rat liver fibrosis model assessed as increase in cGMP level in liver at 2.5 mg/kg,ip administrated once daily for 21 days by ELISA; assay type: functional, organism-based; settings: time 21.0 day
[5] = Selectivity index, ratio of IC50 for inhibition of PDE1C2 (147 to 531 residues) (unknown origin) using 3H-cGMP as substrate to IC50 for inhibition of PDE9A (181 to 506 residues) (unknown origin) using 3H-cGMP as substrate
Rattus norvegicus [6] = experiment: Antifibrotic activity against bile duct ligation induced Sprague-Dawley rat liver fibrosis model assessed as reduction in AST level at 2.5 mg/kg,ip administrated once daily for 21 days; assay type: functional, organism-based; settings: time 21.0 day
[7] = Half life in rat liver microsomes at 1.5 uM; assay type: ADME, Microsome
[8] = Cmax in Sprague-Dawley rat at 2.5 mg/kg,iv administration; assay type: ADME, organism-based; settings: in vivo
[9] = target: High affinity 3',5'-cyclic-AMP phosphodiesterase 7A (Homo sapiens, UniProt Q13946); experiment: Inhibition of PDE7A (130 to 482 residues) (unknown origin) using 3H-cAMP as substrate
LX-2 = experiment: Antifibrotic activity against TGF-beta induced human LX-2 cell activation assessed as downregulation of fibronectin expression incubated for 48 hrs by Western blotting analysis; assay type: functional, cell-based
Rattus norvegicus [10] = experiment: Antifibrotic activity against bile duct ligation induced Sprague-Dawley rat liver fibrosis model assessed as reduction in total bile acid level at 2.5 mg/kg,ip administrated once daily for 21 days; assay type: functional, organism-based; settings: time 21.0 day
Cytochrome P450 1A2 = target: T1, Cytochrome P450 1A2 (Homo sapiens, UniProt P05177); experiment: Inhibition of CYP1A2 in human liver microsomes in presence of NADPH; assay type: ADME, Microsome
T1 sequence (P05177 whole entry): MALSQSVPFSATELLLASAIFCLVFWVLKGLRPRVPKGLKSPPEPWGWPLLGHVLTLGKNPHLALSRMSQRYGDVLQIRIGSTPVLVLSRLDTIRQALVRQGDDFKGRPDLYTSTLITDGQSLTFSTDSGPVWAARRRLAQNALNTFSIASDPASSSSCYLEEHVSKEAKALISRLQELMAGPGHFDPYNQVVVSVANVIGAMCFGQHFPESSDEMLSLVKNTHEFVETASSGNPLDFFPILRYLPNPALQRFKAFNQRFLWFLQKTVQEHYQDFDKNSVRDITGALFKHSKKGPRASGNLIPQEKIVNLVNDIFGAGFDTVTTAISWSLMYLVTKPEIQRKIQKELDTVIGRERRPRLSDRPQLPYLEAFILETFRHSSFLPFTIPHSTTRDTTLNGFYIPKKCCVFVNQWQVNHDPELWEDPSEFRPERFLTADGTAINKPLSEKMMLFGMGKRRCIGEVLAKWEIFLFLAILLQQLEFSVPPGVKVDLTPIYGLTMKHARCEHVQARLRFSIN

[11] = Selectivity index, ratio of IC50 for inhibition of PDE1C2 (147 to 531 residues) (unknown origin) using 3H-cGMP as substrate to IC50 for inhibition of PDE4D (86 to 413 residues) (unknown origin) using 3H-cAMP as substrate

Sequence of Cytochrome P450 3A4 (P08684 whole entry): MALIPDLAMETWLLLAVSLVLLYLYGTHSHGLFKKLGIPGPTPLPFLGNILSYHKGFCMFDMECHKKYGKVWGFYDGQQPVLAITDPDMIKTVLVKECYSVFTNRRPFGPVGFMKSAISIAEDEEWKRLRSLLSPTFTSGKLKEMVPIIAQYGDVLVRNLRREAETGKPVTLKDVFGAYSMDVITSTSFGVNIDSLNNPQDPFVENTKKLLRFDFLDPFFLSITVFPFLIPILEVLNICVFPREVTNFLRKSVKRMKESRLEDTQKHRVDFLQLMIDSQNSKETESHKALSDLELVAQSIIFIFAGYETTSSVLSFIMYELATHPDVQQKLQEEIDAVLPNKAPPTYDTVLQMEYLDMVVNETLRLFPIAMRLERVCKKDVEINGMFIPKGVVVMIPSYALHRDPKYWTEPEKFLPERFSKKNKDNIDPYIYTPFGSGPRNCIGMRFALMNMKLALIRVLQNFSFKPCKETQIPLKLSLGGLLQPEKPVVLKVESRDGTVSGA
Sequence of High affinity cAMP-specific and IBMX-insensitive 3',5'-cyclic phosphodiesterase 8A (O60658 whole entry, the tested form may be a part): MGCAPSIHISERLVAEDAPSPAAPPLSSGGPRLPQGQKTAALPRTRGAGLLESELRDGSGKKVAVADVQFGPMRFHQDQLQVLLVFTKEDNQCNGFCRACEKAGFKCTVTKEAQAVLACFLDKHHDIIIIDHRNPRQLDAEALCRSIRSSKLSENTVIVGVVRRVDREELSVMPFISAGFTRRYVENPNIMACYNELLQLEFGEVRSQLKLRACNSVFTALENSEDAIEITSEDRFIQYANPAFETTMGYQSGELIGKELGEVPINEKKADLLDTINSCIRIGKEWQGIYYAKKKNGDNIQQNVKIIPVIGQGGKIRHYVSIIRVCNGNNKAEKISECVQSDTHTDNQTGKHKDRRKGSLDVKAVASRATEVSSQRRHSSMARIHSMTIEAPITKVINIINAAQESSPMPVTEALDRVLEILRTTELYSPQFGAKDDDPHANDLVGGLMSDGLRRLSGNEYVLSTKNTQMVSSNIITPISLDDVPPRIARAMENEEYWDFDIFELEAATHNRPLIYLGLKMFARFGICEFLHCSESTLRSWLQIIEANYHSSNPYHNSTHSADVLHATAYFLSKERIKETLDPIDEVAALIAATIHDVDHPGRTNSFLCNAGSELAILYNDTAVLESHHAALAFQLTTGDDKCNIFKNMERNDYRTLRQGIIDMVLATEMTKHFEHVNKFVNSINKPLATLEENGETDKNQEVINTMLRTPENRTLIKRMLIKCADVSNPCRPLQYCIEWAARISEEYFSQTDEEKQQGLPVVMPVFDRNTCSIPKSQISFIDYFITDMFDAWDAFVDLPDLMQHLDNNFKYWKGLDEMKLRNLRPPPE
Sequence of High affinity 3',5'-cyclic-AMP phosphodiesterase 7A (Q13946 whole entry, the tested form may be a part): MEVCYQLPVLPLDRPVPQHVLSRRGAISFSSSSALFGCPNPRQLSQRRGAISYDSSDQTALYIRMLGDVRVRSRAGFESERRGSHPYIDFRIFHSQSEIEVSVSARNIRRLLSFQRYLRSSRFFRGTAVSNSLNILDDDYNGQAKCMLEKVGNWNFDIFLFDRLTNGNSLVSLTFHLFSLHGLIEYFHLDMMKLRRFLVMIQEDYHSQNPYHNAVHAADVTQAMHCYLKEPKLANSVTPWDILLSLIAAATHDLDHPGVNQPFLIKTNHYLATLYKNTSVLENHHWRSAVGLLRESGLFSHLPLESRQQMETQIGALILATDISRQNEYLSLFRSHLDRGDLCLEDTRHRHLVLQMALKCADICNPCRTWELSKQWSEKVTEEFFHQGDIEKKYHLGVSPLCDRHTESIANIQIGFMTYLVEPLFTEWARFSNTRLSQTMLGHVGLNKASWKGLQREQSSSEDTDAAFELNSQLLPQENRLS
Sequence of Cytochrome P450 2D6 (P10635 whole entry, the tested form may be a part): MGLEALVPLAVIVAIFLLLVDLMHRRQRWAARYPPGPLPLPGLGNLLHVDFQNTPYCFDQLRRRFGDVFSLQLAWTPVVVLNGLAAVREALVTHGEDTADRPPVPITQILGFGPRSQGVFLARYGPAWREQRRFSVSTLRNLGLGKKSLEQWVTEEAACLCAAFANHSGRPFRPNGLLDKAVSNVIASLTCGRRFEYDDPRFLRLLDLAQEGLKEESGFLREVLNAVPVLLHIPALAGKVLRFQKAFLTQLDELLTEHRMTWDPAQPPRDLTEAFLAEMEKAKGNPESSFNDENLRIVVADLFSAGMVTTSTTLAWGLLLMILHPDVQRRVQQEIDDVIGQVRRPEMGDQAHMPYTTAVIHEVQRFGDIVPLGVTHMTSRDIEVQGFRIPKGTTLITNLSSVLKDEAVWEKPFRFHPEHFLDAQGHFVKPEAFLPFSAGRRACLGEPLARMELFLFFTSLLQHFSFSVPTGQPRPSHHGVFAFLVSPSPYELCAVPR
Sequence of Voltage-gated inwardly rectifying potassium channel KCNH2 (Q12809 whole entry, the tested form may be a part): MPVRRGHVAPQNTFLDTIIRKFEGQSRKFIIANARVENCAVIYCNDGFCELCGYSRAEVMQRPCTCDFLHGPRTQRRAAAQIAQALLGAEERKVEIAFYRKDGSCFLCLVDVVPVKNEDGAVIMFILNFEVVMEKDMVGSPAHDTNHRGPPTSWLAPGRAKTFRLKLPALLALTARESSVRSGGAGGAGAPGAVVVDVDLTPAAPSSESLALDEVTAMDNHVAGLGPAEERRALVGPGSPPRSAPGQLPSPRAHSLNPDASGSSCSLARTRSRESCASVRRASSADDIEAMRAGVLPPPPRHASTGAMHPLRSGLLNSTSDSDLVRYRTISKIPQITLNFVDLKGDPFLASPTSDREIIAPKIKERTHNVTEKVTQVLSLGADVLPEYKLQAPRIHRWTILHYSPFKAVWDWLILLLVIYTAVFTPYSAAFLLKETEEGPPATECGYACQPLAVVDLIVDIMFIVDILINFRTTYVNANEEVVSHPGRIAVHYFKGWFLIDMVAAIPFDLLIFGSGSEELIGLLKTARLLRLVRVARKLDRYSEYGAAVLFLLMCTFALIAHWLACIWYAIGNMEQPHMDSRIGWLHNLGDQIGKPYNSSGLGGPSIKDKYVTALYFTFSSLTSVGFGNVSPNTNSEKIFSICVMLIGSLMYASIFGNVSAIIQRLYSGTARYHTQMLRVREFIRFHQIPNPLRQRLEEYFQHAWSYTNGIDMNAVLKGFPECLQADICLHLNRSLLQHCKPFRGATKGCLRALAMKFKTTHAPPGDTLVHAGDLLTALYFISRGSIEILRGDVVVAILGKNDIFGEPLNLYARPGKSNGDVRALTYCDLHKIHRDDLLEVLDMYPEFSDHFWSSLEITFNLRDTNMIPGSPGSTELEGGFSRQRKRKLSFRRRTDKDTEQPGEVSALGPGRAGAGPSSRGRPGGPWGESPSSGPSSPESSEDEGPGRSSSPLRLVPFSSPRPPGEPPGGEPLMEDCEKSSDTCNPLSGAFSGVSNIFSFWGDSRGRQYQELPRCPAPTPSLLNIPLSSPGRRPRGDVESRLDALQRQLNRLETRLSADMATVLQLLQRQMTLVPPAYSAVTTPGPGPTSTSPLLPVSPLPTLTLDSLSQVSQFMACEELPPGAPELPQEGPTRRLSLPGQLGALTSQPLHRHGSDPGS
Sequence of 3',5'-cyclic-AMP phosphodiesterase 4D (Q08499 whole entry, the tested form may be a part): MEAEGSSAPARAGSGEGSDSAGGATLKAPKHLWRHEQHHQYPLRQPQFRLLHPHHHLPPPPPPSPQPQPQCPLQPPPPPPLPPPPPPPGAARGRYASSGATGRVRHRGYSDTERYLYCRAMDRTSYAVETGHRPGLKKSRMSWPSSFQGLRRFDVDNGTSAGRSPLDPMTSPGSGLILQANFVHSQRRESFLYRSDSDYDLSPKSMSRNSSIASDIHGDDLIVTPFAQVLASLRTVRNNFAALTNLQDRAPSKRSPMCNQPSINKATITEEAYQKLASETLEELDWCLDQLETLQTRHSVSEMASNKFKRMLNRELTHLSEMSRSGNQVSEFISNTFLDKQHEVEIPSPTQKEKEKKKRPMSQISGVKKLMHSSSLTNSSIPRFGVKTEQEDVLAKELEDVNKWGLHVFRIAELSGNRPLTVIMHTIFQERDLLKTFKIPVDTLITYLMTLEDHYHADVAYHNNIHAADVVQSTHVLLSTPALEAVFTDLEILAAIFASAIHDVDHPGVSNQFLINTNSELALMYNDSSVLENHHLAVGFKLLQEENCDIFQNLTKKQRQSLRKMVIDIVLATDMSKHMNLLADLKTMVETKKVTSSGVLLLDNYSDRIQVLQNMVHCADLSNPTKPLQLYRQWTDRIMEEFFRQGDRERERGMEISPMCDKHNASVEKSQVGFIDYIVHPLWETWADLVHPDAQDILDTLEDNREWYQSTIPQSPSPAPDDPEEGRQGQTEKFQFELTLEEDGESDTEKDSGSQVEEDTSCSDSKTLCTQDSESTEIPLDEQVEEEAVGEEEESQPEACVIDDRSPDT

Molecule `CC1=C(C(=O)OCC2CCCCC2)C(c2ccc(OC(F)F)c(OCC3CC3)c2)N(C(=O)SCc2ccccc2)C(=O)N1` (stereo not given) has an IC50 [1] of over 40 µM, an IC50 [2] of 1.76 µM and an IC50 (Cytochrome P450 3A4) of over 25 µM. For the same molecule, the IC50 (Cytochrome P450 2D6) was over 25 µM, the IC50 [3] was 2.05 µM and the Activity (Rattus norvegicus [4]) was “inactive”. The Ratio IC50 [5] was 210, the Activity (Rattus norvegicus [6]) was “Active” and the half-life at 1.5 µM [7] was 14.1 min. The Cmax [8] was 25000 ng/mL, the IC50 [9] was over 5 µM and the Activity (LX-2) was “Dose-Dependent Effect”. For the same molecule, the Activity (Rattus norvegicus [10]) was “Active”, the IC50 (Cytochrome P450 1A2) was over 25 µM and the Ratio IC50 [11] was 205.

Source: ChEMBL document CHEMBL5506023, “Design, Synthesis, and Evaluation of Dihydropyrimidine Derivatives as Selective PDE1 Inhibitors for the Treatment of Liver Fibrosis” (J Med Chem, 2024)
